These results are taken from patent US10696642B2, “TEAD transcription factor autopalmitoylation inhibitors” (The General Hospital Corporation, priority 2015, dated 2020).

T1 sequence (Q15562 217-447): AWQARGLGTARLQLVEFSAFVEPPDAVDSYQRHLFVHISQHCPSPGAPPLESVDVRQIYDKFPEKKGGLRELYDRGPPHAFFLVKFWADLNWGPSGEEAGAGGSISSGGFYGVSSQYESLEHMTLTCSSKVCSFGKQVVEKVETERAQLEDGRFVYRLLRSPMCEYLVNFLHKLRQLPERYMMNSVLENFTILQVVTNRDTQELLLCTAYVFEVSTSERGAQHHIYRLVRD

The first experiment addresses T1, TEAD2 (Homo sapiens, UniProt Q15562).
T1 construct: The cDNA encoding human TEAD2 (residues 217-447, TEAD2^217-447) was cloned into a pET29 vector; made in house; host or cells: E. coli BL21(DE3)-T1R
The experiment can be described thus: In vitro palmitoylation assay to measure potency of TEAD palmitoylation inhibitors (Example 11). It counts as biochemical. Particulars: compound at 5 μM, 3 μM alkyne palmitoyl-CoA, normalized to DMSO control. How it is done:
Recombinant His6TEAD2 (500 ng) protein was incubated with DMSO control or TEAD inhibitors (MGH-CP1 and its analogues) at 5 μM for 30 min. 3 μM of alkyne palmitoyl-CoA (Cayman Chemical) were then added into the reaction mixture and incubated for 2 h in 50 mM MES, pH 6.4. The reaction was quenched with 1% SDS followed by Click reaction with biotin-azide. Samples were analyzed by SDS-PAGE and streptavidin HRP. Bands intensity obtained from streptavidin blot were quantified using Image J (NIH), and normalized to DMSO control. The percentage of inhibition was determined by comparing to DMSO control and non-palmitoylated TEAD2. To determine the dose-dependency of the inhibitors, various concentrations of the compounds (10 nM to 20 μM) were incubated with TEAD2 protein for 30 min, and then 3 μM of alkyne palmitoyl-CoA (Cayman Chemical) were then added into the reaction mixture and incubated for 2 h in 50 mM MES, pH 6.4. The reaction was then quenched and analyzed similarly as descried above. The level of palmitoylation was then determined by the streptavidin blot, and plotted by Prism to determine the IC50 values.
Compounds (4) to (53) were tested for activity in inhibiting TEAD palmitoylation in the assay of Example 11. The data for the compounds provided in Table 2 as a percentage of inhibition of TEAD2 palmitoylation by the compound at a concentration of 5 μM.
For `Cn1cnnc1SCC(=O)Nc1ccc(C23CC4CC(CC(C4)C2)C3)cc1Br`, at 5 µM the inhibition was 12%. `O=C(CSc1nncs1)Nc1ccc(C23CC4CC(CC(C4)C2)C3)cc1` showed an inhibition at 5 µM of 68%.

For the compound `O=C(CSc1nnc[nH]1)Oc1ccc(C23CC4CC(CC(C4)C2)C3)cc1`, at 5 µM the inhibition was 39%. The same measure, in the same setting: the figure for `O=C(CSc1nnc[nH]1)Nc1ccc(-c2cc(-c3ccncc3)cc(-c3ccncc3)c2)cc1` is 90%; for `O=C(CSc1nnc[nH]1)Nc1ccc(-c2cccc(-c3ccccc3)c2)cc1` it is 70%. On the same count and under the same terms, as for `O=C(CSc1nnc[nH]1)Nc1ccc(-c2ccncc2)cc1`, the figure is 90%; as for `O=C(Nc1ccc(C23CC4CC(CC(C4)C2)C3)cc1)c1cccnc1Nc1cccc(C(F)(F)F)c1`, less than 10%; as for `O=C(CCSc1nnc(-c2ccc(Cl)cc2Cl)o1)Nc1cccc(C23CC4CC(CC(C4)C2)C3)c1`, 63%.

Consider `CCn1c(SCC(=O)Nc2ccc(C34CC5CC(CC(C5)C3)C4)cc2)nnc1-c1ccccc1O`, for which 5 µM produced 10% inhibition. Consider `O=C(CSc1nnc[nH]1)Nc1ccc(C23CC4CC(CC(C4)C2)C3)cc1Br`, for which testing at 5 µM gave an inhibition of 87%.

For the compound `O=C(CCCSc1nnc[nH]1)Nc1ccc(C23CC4CC(CC(C4)C2)C3)cc1`, the inhibition at 5 µM amounted to 100%. As to `O=C(CSc1nnc[nH]1)Nc1ccc(C23CC4CC(CC(C4)C2)C3)cc1` [drawing 23], the inhibition at 5 µM was determined as 85%. The same measure, in the same setting: as for `O=C(CSc1nnc[nH]1)Nc1ccc(-c2cc(-c3ccccc3)cc(-c3ccccc3)c2)cc1`, the figure is 68%; as for `CCOc1ccc2nc(SCC(=O)Nc3ccc(C45CC6CC(CC(C6)C4)C5)cc3)sc2c1`, 40%; as for `Cn1c(SCC(=O)Nc2ccc(C34CC5CC(CC(C5)C3)C4)cc2)nnc1-c1ccccc1`, 70%.

Consider `Cc1nnc(SCCC(=O)Nc2cccc(C34CC5CC(CC(C5)C3)C4)c2)o1`, for which the inhibition at 5 µM stood at 80%. Still for that read-out and setting: the figure for `Cc1ccc(-c2nnc(SCC(=O)Nc3ccc(C45CC6CC(CC(C6)C4)C5)cc3)o2)cc1` is 53%; for `Nc1nncn1CC(=O)Nc1ccc(C23CC4CC(CC(C4)C2)C3)cc1` [drawing 55] it is 38%; for `O=C(CS(=O)(=O)c1nnc[nH]1)Nc1ccc(C23CC4CC(CC(C4)C2)C3)cc1` it is less than 10%. The same measure, in the same setting: the figure for `Cc1ccc(-c2nnc(SCCC(=O)Nc3cccc(C45CC6CC(CC(C6)C4)C5)c3)o2)cc1` is 80%; for `Cc1cccc(C)c1-c1ccc(NC(=O)CSc2nnc[nH]2)cc1` [drawing 42] it is 100%; for `O=C(CCSc1nnc[nH]1)Nc1ccc(C23CC4CC(CC(C4)C2)C3)cc1` it is 100%. The same measure, in the same setting: the figure for `O=C(CSc1nnc[nH]1)Nc1ccc(-c2cc(-c3ccccc3)cc(C(F)(F)F)c2)cc1` is 90%; for `O=C(CSc1nnc[nH]1)Nc1ccc(-c2cc(-c3ccccc3)nc(-c3ccccc3)c2)cc1` it is 78%.

Turning to `Cc1ccc(-c2nnc(SCCCC(=O)Nc3ccc(C45CC6CC(CC(C6)C4)C5)cc3)o2)cc1`, the inhibition at 5 µM stood at 58%.

`O=C(CSc1nnc[nH]1)Nc1ccc(-c2ccccc2)cc1` registered an inhibition at 5 µM of 89%. Same read-out and setting: as for `COc1ccc(-c2nnc(SCC(=O)Nc3ccc(C45CC6CC(CC(C6)C4)C5)cc3)[nH]2)cc1`, the figure is 80%; as for `O=C(CSc1nnc[nH]1)Nc1ccc(-c2cccc(-c3cccnc3)c2)cc1`, 100%; as for `O=C(CNc1nnc[nH]1)Nc1ccc(C23CC4CC(CC(C4)C2)C3)cc1`, 45%.

With `O=C(CSc1nnc[nH]1)Nc1ccc(-c2cc3ccccc3c3ccccc23)cc1`, the inhibition at 5 µM was 56%. `O=C(CSc1nnc[nH]1)Nc1ccc(-c2cc(-c3cccnc3)cc(-c3cccnc3)c2)cc1` returned an inhibition at 5 µM of 95%.

Regarding `Cc1cc(C)cc(-c2ccc(NC(=O)CSc3nnc[nH]3)cc2)c1`, the inhibition at 5 µM was 100%. With `CCOc1ccc2nc(SCCC(=O)Nc3ccc(C45CC6CC(CC(C6)C4)C5)cc3)sc2c1`, the inhibition at 5 µM is 47%. `O=C(CSc1nnc[nH]1)Nc1ccc(-c2ccc(C3CCCCC3)cc2)cc1` came in with an inhibition at 5 µM of 93%. Still for that read-out and setting: as for `O=C(CSc1nnc[nH]1)Nc1ccc(-c2cc(C(F)(F)F)cc(C(F)(F)F)c2)cc1`, the figure is 95%; as for `O=C(CSc1nnc[nH]1)Nc1ccc(-c2cccc(-c3ccncc3)c2)cc1`, 100%; as for `CC(C)(C)c1ccc(-c2ccc(NC(=O)CSc3nnc[nH]3)cc2)cc1`, 100%.

As to `O=C(CSc1nnc[nH]1)Nc1ccc(-c2ccccc2)cc1Br`, at 5 µM the inhibition was 89%. For the compound `O=C(CSc1nnc[nH]1)Nc1ccc(-c2cccc3ccccc23)cc1`, the inhibition at 5 µM is 90%. Same read-out and setting: as for `CCn1c(CN2CCOCC2)nnc1SCC(=O)Nc1ccc(C23CC4CC(CC(C4)C2)C3)cc1`, the figure is 10%; as for `O=C(CSc1nnc(-c2ccc(Cl)cc2Cl)o1)Oc1ccc(C23CC4CC(CC(C4)C2)C3)cc1`, 56%. Still for that read-out and setting: the figure for `Cn1cnnc1SCC(=O)Nc1ccc(-c2ccccc2)cc1` is 23%; for `O=C(CSc1nnc[nH]1)N(c1cccc(C(F)(F)F)c1)c1ccccn1` it is less than 10%; for `O=C(CSc1nnc[nH]1)Nc1ccc(-c2cccc(C(F)(F)F)c2)cc1` it is 88%. `CCCc1ccc(-c2ccc(NC(=O)CSc3nnc[nH]3)cc2)cc1` gave an inhibition at 5 µM of 97%. On the same count and under the same terms, the figure for `Cn1cnnc1SCC(=O)Nc1ccc(C23CC4CC(CC(C4)C2)C3)cc1` is 10%. `Cc1nnc(SCC(=O)Nc2ccc(C34CC5CC(CC(C5)C3)C4)cc2)o1` displayed an inhibition at 5 µM of 76%.

For the compound `Cc1cc(-c2ccc(NC(=O)CSc3nnc[nH]3)cc2)cc(C)n1`, the inhibition at 5 µM worked out at 95%. In turn, `CC(C)c1ccc(NC(=O)CSc2nnc[nH]2)cc1` displayed an inhibition at 5 µM of 24%. Compound `CC(C)(C)c1ccc(NC(=O)CSc2nnc[nH]2)cc1` displayed an inhibition at 5 µM of 30%.

The test system of a further experiment is HuH7 cells. The experiment is described as follows: Colony formation, HuH7. The conditions noted are these: tested at 0-20 μM (FIG. 29). It is filed as cell-based, human. How it is done: Assays were performed to measure inhibition of cancer cell proliferation in HuH7 cells by compounds (4), (22) and (36), which were each tested at 0-20 μM.
With `Nc1nncn1CC(=O)Nc1ccc(C23CC4CC(CC(C4)C2)C3)cc1` [Compound 36], the “inhibition of cancer cell proliferation / colony formation in HuH7 cells” value is given as “less effective”.

With `Cc1cccc(C)c1-c1ccc(NC(=O)CSc2nnc[nH]2)cc1` [Compound 23], the “inhibition of cancer cell proliferation / colony formation in HuH7 cells” value is on record as “effective”.

As usually defined, the inhibition is the share of the control response that was lost under treatment. A lower inhibition goes with little suppression.
